Measured values: paper PMC11672299, “Conjugation of Polycationic Peptides Extends the Efficacy Spectrum of β‐Lactam Antibiotics” (Advanced Science, 2024)

What was measured:
[1] = system: CTZ‐resistant C. freundii (n = 3); type: cell-based; conditions: 20 h
Experimental: (§1) The minimum inhibitory concentration (MIC) of the β‐lactam–peptide conjugates was determined by broth microdilution as previously described.^[ [17] ^] Briefly, in cation‐adjusted MHB II medium, a twofold serial dilution of the compounds was prepared in 96‐well round‐bottom polystyrene or polypropylene microtiter plates with each well containing 50 µL. The plates were inoculated with 50 µL bacterial suspension and the final inoculum, in a total volume of 100 µL, contained 5 × 10^5 CFU mL^−1. The microplates were incubated for 20 h at 37 ± 1 °C. The lowest concentration preventing visible bacterial growth was considered the MIC value. For susceptibility testing of combinations of β‐lactamase‐inhibitors with either a β‐lactam antibiotic or a β‐lactam–peptide conjugate, fixed concentrations of the inhibitors according to the EUCAST (European Committee on Antimicrobial Susceptibility Testing) guidelines (clavulanic acid = 2 mg L^−1, avibactam = 4 mg L^−1) were used.

[2] = system: CTZ‐resistant A. baumannii (n = 4); type: cell-based
Experimental: as §1

Gram‐positive bacteria = assay: MIC compared with parent β‐lactam; type: cell-based
Experimental: as §1

[3] = system: Enterobacteriaceae (CTZ‐resistant); assay: MIC compared with parent β‐lactam; type: cell-based
Experimental: as §1

E. faecalis (vanB) = assay: MIC compared with parent β‐lactam; type: cell-based; conditions: on a molar level
Experimental: as §1

Gram‐negative bacteria = assay: MIC compared with parent β‐lactam; type: cell-based
Experimental: as §1

[4] = system: VRE E. faecium UW 18 830 (vanA); assay: Systemic infection VRE mouse model; type: in vivo, female Balb/c mice; conditions: VRE E. faecium UW18830 infected Balb/c mice, 30 mg kg^−1 day^−1 i.v., 48 h p.i., compared to CTZ or PBS
Text: The animal infection studies were approved by the local government of Lower Franconia, Germany (approval number 55.2.2‐2532.2‐1283) and performed in strict accordance with the guidelines for animal care and experimentation of the German Animal Protection Law and the DIRECTIVE 2010/63/EU of the EU. The animals were housed in individually ventilated cages under standardized lighting conditions and had ad libitum access to food and water. To evaluate the in vivo activity during systemic infection, female Balb/c mice were infected with 5×10^7 CFU of VRE E. faecium UW 18 830 (vanA) by tail vein injection. Beginning at 1 h p.i., then repeatedly every 12 h, mice received intravenously either CTZ (30 mg kg body weight^−1 day^−1), CTZ‐R6 (30 mg kg body weight^−1 day^−1) or sterile PBS. The livers were recovered 48 h p.i. (12 h after the last treatment) and frozen at – 80 °C until further processing. For the determination of the bacterial burden, the livers were thawed, homogenized in PBS and plated in serial dilutions on brain heart infusion agar plates. CFU were counted after overnight incubation at 37 °C.

Structure (SMILES): CC(C)(O/N=C(\C(=O)N[C@@H]1C(=O)N2C(C(=O)[O-])=C(C[n+]3ccccc3)CS[C@H]12)c1csc(N)n1)C(=O)NCCCCCCN1C(=O)CC(SC[C@H](NC(=O)[C@H](CCCNC(=N)N)NC(=O)[C@H](CCCNC(=N)N)NC(=O)[C@H](CCCNC(=N)N)NC(=O)[C@H](CCCNC(=N)N)NC(=O)[C@H](CCCNC(=N)N)NC(=O)[C@@H](N)CCCNC(=N)N)C(N)=O)C1=O (some centres unmarked) [CTZ-R6]
- MIC range [1]: 0.5 to 64 µg/mL
- MIC range ([2]; CTZ‐resistant (n = 4, 20 h)): 4 to 16 µg/mL
- increase in antimicrobial activity versus CTZ ([2]; CTZ‐resistant A. baumannii): ~16 fold
- increase in antimicrobial activity versus CTZ (factor) (Gram‐positive bacteria): ≈ 1000
- increase in antimicrobial activity versus CTZ [3]: ca. fourfold
- increase in antimicrobial activity versus CTZ (E. faecalis (vanB)): ~300 fold
- increase in antimicrobial activity versus CTZ (factor) (Gram‐negative bacteria): 2–32
- bacterial burden in the liver (CFU) [4]: reduced the bacterial burden in the liver
